Experimental findings from ChEMBL document CHEMBL1795322, “Inhibition of the cellular function of perforin by 1-amino-2,4-dicyanopyrido[1,2-a]benzimidazoles” (Bioorg Med Chem, 2011) are described below.

Molecules are shown by their SMILES. pIC50: −log10 of the molar value.

Series [1] addresses T1, Perforin-1 (Homo sapiens) (UniProt P14222).
T1 sequence (whole entry): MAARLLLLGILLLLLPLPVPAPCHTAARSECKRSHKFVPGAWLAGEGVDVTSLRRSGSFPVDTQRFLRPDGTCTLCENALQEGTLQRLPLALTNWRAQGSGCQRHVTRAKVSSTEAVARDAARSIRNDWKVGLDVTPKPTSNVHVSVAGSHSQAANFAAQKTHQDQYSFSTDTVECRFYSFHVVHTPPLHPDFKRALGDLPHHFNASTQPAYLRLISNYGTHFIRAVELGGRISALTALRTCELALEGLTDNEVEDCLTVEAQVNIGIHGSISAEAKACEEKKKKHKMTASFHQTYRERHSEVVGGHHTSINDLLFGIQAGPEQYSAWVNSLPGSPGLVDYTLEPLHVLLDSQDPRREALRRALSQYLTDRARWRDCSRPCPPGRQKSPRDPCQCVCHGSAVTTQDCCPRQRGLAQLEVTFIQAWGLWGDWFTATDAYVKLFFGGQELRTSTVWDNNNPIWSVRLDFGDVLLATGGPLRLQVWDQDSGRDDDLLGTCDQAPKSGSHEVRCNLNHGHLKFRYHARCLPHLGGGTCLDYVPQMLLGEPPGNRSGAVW
Nature of the series: Inhibition of perforin released from human KHYG-1 NK cells assessed as inhibition of perforin mediated lysis of human K562 cells at 20 uM in presence of 10% mouse serum by [51Cr] release assay. The class given is cell-based.

Series [2] is described as follows: Toxicity against human KHYG-1 NK cells assessed as cell viability at 20 uM incubated for 24 hrs at 37 degC y Trypan blue exclusion method. The class given is cell-based. The following applies: read-out: Activity.
The target in series [3] is T1, Perforin-1 (Homo sapiens). Nature of the series: Inhibition of perforin released from human KHYG-1 NK cells assessed as inhibition of perforin mediated lysis of human K562 cells at 20 uM in presence of 0.1% BSA by [51Cr] release assay. In kind it is cell-based.
Series [4] is described as follows: Inhibition of recombinant perforin mediated lysis of human Jurkat cells pre-incubated for 30 mins with perforin followed by incubation with Jurkat cells at 37 degC for 4 hrs in presence of 0.1% BSA by [51Cr] release assay.

A word on the inhibition: it is the drop in the measured response relative to a control, in per cent. As to `N#Cc1c(-c2ccc(OCC(=O)NCCO)cc2)c(C#N)c2nc3ccccc3n2c1N`, the inhibition in series [1] stood at 6%; in series [3], 0%. In addition, the viability at 24 h, 20 µM in series [2] stood at 92%.
The matching figures for `N#Cc1c(-c2ccc(C(=O)NCCCO)cc2)c(C#N)c2nc3ccccc3n2c1N`: 7%, 0% and 86%.
The matching figures for `CNC(=O)COc1ccc(-c2c(C#N)c(N)n3c(nc4ccccc43)c2C#N)cc1`: 42%, 41% and 84%.
Turning to `N#Cc1c(-c2ccc(C(=O)NCC(O)CO)cc2)c(C#N)c2nc3ccccc3n2c1N` (configuration not stated), the inhibition in series [1] and in series [3] was 0% in each case. For the same compound, the viability at 24 h, 20 µM in series [2] was 84%.
Take `N#Cc1c(-c2ccc(C(=O)NCCc3ccncc3)cc2)c(C#N)c2nc3ccccc3n2c1N`: the inhibition was 20% in series [1] and 15% in series [3]. In addition, the viability at 24 h, 20 µM in series [2] was determined as 62%.
The matching figures for `CN(C)C(=O)CCc1ccc(-c2c(C#N)c(N)n3c(nc4ccccc43)c2C#N)cc1`: 64%, 49% and 96%.
The matching figures for `N#Cc1c(-c2ccc(C(=O)NCCN3CCOCC3)cc2)c(C#N)c2nc3ccccc3n2c1N`: 5%, 1% and 85%.
The matching figures for `N#Cc1c(-c2ccc(C(=O)NCCO)cc2)c(C#N)c2nc3ccccc3n2c1N`: 12%, 4% and 89%.
Turning to `CNC(=O)c1ccc(-c2c(C#N)c(N)n3c(nc4ccccc43)c2C#N)cc1`, the inhibition in series [1] is 12%; in series [3] it was 9%. Further, in series [2], the viability at 24 h, 20 µM is 84%.
The matching figures for `CN(C)C(=O)COc1ccc(-c2c(C#N)c(N)n3c(nc4ccccc43)c2C#N)cc1`: 25%, 34% and 78%.
As a reminder, the pIC50 is −log10 of the IC50, conventionally taken in molar units. As to `Cc1cc2c(c(=S)[nH]1)C(=O)O/C2=C\c1csc2ccccc12`, the inhibition stood at 6% in series [1] and 60% in series [3]. In addition, the viability at 24 h, 20 µM in series [2] came to 88%. Moreover, in series [4], the pIC50 is 6.01.
Turning to `CC(O)CNC(=O)c1ccc(-c2c(C#N)c(N)n3c(nc4ccccc43)c2C#N)cc1` (configuration not stated), the inhibition in series [1] and in series [3] was 0% in each case. In series [2], the viability at 24 h, 20 µM was found to be 68%.
As for `N#Cc1c(-c2ccc(C(N)=O)cc2)c(C#N)c2nc3ccccc3n2c1N`, the inhibition in series [1] is 6%; in series [3], 7%. In series [2], the viability at 24 h, 20 µM amounted to 79%.
The matching figures for `CCCNC(=O)COc1ccc(-c2c(C#N)c(N)n3c(nc4ccccc43)c2C#N)cc1`: 22%, 41% and 90%.
The matching figures for `CCNC(=O)COc1ccc(-c2c(C#N)c(N)n3c(nc4ccccc43)c2C#N)cc1`: 11%, 0% and 77%.
The matching figures for `Cc1ccc2c(nc3c(C#N)c(-c4ccc(OCC(N)=O)cc4)c(C#N)c(N)n32)c1C`: 7%, 36% and 60%.
In the case of `N#Cc1c(-c2ccc(OCC(N)=O)cc2)c(C#N)c2nc3ccccc3n2c1N`, the inhibition was found to be 2% in series [1] and 18% in series [3]. Moreover, in series [2], the viability at 24 h, 20 µM came to 86%.
`CC(C)NC(=O)COc1ccc(-c2c(C#N)c(N)n3c(nc4ccccc43)c2C#N)cc1`: the inhibition in series [1] was found to be 22%; in series [3], 52%. Moreover, the viability at 24 h, 20 µM in series [2] is 70%.
The matching figures for `N#Cc1c(-c2ccc(OCCO)cc2)c(C#N)c2nc3ccccc3n2c1N`: 16%, 15% and 85%.
For `Cc1cccc2c1nc1c(C#N)c(-c3ccc(OCC(N)=O)cc3)c(C#N)c(N)n12`, the inhibition in series [1] turned out to be 8%; in series [3] it was 10%. In addition, the viability at 24 h, 20 µM in series [2] amounted to 88%.
The matching figures for `Cc1cc2nc3c(C#N)c(-c4ccc(OCC(N)=O)cc4)c(C#N)c(N)n3c2cc1C`: 5%, 38% and 62%.
The matching figures for `CCNC(=O)c1ccc(-c2c(C#N)c(N)n3c(nc4ccccc43)c2C#N)cc1`: 12%, 19% and 53%.
